Data on seven molecules can be found in patent US20110237520A1, “Anticancer Compounds” (priority 2008, published 2011).

One series deals with MDA-MB-231. The series is described as follows: SRB colorimetric cytotoxicity assay, MDA-MB-231. In kind it is cell-based, human. As to conditions: MDA-MB-231, 72 hours treatment; for GI50: 50% cell growth inhibition; for TGI: total cell growth inhibition. From the text: (§1) The aim of this assay is to evaluate the in vitro cytostatic (ability to delay or arrest tumor cell growth) or cytotoxic (ability to kill tumor cells) activity of the samples being tested.
(§2) A colorimetric assay, using sulforhodamine B (SRB) reaction has been adapted to provide a quantitative measurement of cell growth and viability (following the technique described by Skehan et al. J. Natl. Cancer Inst. 1990, 82, 1107-1112).
(§3) This form of assay employs SBS-standard 96-well cell culture microplates (Faircloth et al. Methods in Cell Science, 1988, 11(4), 201-205; Mosmann et al, Journal of Immunological Methods, 1983, 65(1-2), 55-63). All the cell lines used in this study were obtained from the American Type Culture Collection (ATCC) and derive from different types of human cancer.
(§4) Cells were maintained in Dulbecco's Modified Eagle Medium (DMEM) supplemented with 10% Fetal Bovine Serum (FBS), 2 mM L-glutamine, 100 U/mL penicillin and 100 U/mL streptomycin at 37° C., 5% CO2 and 98% humidity. For the experiments, cells were harvested from subconfluent cultures using trypsinization and resuspended in fresh medium before counting and plating.
(§5) Cells were seeded in 96 well microtiter plates, at 5×10^3 cells per well in aliquots of 150 μL, and allowed to attach to the plate surface for 18 hours (overnight) in drug free medium. After that, one control (untreated) plate of each cell line was fixed (as described below) and used for time zero reference value. Culture plates were then treated with test compounds (50 μL aliquots of 4× stock solutions in complete culture medium plus 4% DMSO) using ten serial dilutions (concentrations ranging from 10 to 0.00262 μg/mL) and triplicate cultures (1% final concentration of DMSO). After 72 hours treatment, the antitumor effect was measured by using the SRB methodology: Briefly, cells were washed twice with PBS, fixed for 15 min in 1% glutaraldehyde solution at room temperature, rinsed twice in PBS, and stained in 0.4% SRB solution for 30 min at room temperature. Cells were then rinsed several times with 1% acetic acid solution and air-dried at room temperature. SRB was then extracted in 10 mM trizma base solution and the absorbance measured in an automated spectrophotometric plate reader at 490 nm. Effects on cell growth and survival were estimated by applying the NCI algorithm (Boyd M R and Paull K D. Drug Dev. Res. 1995, 34, 91-104).
(§6) Using the mean±SD of triplicate cultures, a dose-response curve was automatically generated using nonlinear regression analysis. Three reference parameters were calculated (NCI algorithm) by automatic interpolation: GI50=compound concentration that produces 50% cell growth inhibition, as compared to control cultures; TGI=total cell growth inhibition (cytostatic effect), as compared to control cultures, and LC50=compound concentration that produces 50% net cell killing (cytotoxic effect).

A further series concerns HT29. The series can be described thus: SRB colorimetric cytotoxicity assay, HT29. Format: cell-based, human. As to conditions: for GI50: 50% cell growth inhibition; for CC50: 50% net cell killing, read-out: LC50 (the source's name); for TGI: total cell growth inhibition.
From the text: as §1, §2, §3, §4, §5, §6

The subject of the next series is A549. The series is described as follows: SRB colorimetric cytotoxicity assay, A549. In kind it is cell-based, human. As to conditions: A549, 72 hours treatment; for GI50: 50% cell growth inhibition; for CC50: 50% net cell killing, read-out: LC50 (the source's name); for TGI: total cell growth inhibition.
From the text: as §1, §2, §3, §4, §5, §6

The test system of another series is HIV-1. As to conditions: cell-based XTT assay; read-out: IC50, cytoprotective activity against HIV-1 infection; cited from earlier work. In general terms: Tetrazolium dyes change colour on reduction, which living cells bring about.
In series [1] the test system is HIV-1RF. As to conditions: human T-cell line CEM-SS infected with HIV-1RF, 6 day incubation; read-out: EC50, inhibition of the cytopathic effect of HIV-1 infection; cited from earlier work. On the technique in general: Damage to the host cells serves as the signal in cytopathic effect assays.
In series [2] the test system is HIV-1RF. As to conditions: in vitro; cited from earlier work.
Series [3] concerns panel of human cancer cell lines. As to conditions: mean over a panel of human cancer cell lines; cited from earlier work.
[4] abbreviates: Homo sapiens, HT-29, HT29, 72 hours treatment.

Where two headings read alike, the source gives them in different places. Numbered stars: 1 amine (or outer) side, 2 acyl side, 3 side chain; on linkers, the order of the positions; unused ones are H or OH. Bridge positions count the residues as written; N and C are the ends. Square brackets hold non-standard residues; d marks the D form. Peptide text beside a SMILES is read from it. * marks the point of attachment. ξ: configuration not given here. dNle(3R-OH,4R,5-Me2) = CC(C)[C@@H](C)[C@@H](O[*:3])[C@@H](N[*:1])C(=O)[*:2]; γ4hArg(2R,3R-(OH)2) = N=C(N)NCCC[C@H](N[*:1])[C@@H](O)[C@@H](O)C(=O)[*:2]; Heptanoyl(3R-OH,2R,4R,6-Me3) = CC(C)C[C@@H](C)[C@@H](O)[C@@H](C)C(=O)*; X5 = CO[C@H](c1ccc(O)cc1)C(N[*:1])C(=O)C[C@H](CC(N)=O)C(=O)[*:2]; Gln(3S,4R-Me2) = C[C@H]([C@H](N)C(=O)O)[C@@H](C)C(N)=O; X1 = NC(=O)CC[C@H](N[*:1])[C@@H](O)[C@@H](O)C(=O)[*:2]; X7 = O=C(O)CC[C@H](N[*:1])[C@@H](O)[C@@H](O)C(=O)[*:2]; ξThr(3R)(O-yl) = C[C@@H](O[*:3])C(N[*:1])C(=O)[*:2]; X6 = CC[C@@H](C)C[C@@H](C)[C@@H](O)[C@@H](C)C(=O)*; X4 = C[C@H](C(N[*:1])C(=O)[*:2])[C@@H](C)C(N)=O; Asn(3S-OEt) = CCO[C@H](C(N)=O)[C@H](N)C(=O)O; dAsp(3S-OH) = N[C@@H](C(=O)O)[C@H](O)C(=O)O; ξGln(3,4-Me2) = CC(C(N)=O)C(C)C(N)C(=O)O; X3 = CC(O)C(N[*:1])C(O)C(O)C(=O)[*:2]; ξAsn(3ξ-OMe) = COC(C(N)=O)C(N)C(=O)O; d(aThr) = C[C@@H](O)[C@@H](N)C(=O)O; X2 = CC(C)CC(C)CC(C)C(O)C(C)C(=O)*; NMeQ = CN[CH](CCC(N)=O)C(=O)O; ξNle(4ξ-Me) = CCC(C)CC(N)C(=O)O; ξThr(3R) = C[C@@H](O)C(N)C(=O)O; dOrn = NCCC[C@@H](N)C(=O)O; Pip = O=C(O)[CH]1CCCCN1; Orn = NCCC[CH](N)C(=O)O; ξL = CC(C)CC(N)C(=O)O

For the molecule `CCO[C@H](C(N)=O)[C@@H]1NC(=O)[C@H](CCC(N)=O)N(C)C(=O)[C@H](CC(C)C)NC(=O)[C@@H](CCCCN)NC(=O)[C@@H]([C@@H](C)O)NC(=O)[C@H](NC(=O)[C@@H](NC(=O)[C@H](O)[C@H](O)[C@H](CCC(N)=O)NC(=O)[C@@H](CC(=O)O)NC(=O)[C@H](C)[C@H](O)[C@H](C)CC(C)C)[C@@H](C)[C@@H](C)C(N)=O)[C@@H]([C@H](C)C(C)C)OC(=O)[C@@H]2CCCCN2C(=O)[C@@H](CC(=O)O)NC1=O` [Pipecolidepsin A] ({Heptanoyl(3R-OH,2R,4R,6-Me3)}-[dD][X1][Gln(3S,4R-Me2)][dNle(3R-OH,4R,5-Me2)][d(aThr)][dK]L[NMeQ][Asn(3S-OEt)][dD][Pip]; ester 4-C), in the series with MDA-MB-231, the GI50 stood at 725 nM, the LC50 (50% net cell killing) is 1750 nM and the TGI was 1.15E−06 Molar. In the series on HT29 (HT29, 72 hours treatment), the concentration for 50% growth inhibition (GI50) came out at 1150 nM, the CC50 came out at 1570 nM and the TGI amounted to 1.33E−06 Molar. In the series with A549, it took 604 nM to inhibit growth by half (GI50), the CC50 turned out to be 1390 nM and the TGI turned out to be 9.06E−07 Molar.
In the series on MDA-MB-231, `CCO[C@H](C(N)=O)[C@@H]1NC(=O)[C@H](CCC(N)=O)N(C)C(=O)[C@H](CC(C)C)NC(=O)[C@@H](CCCCN)NC(=O)[C@@H]([C@@H](C)O)NC(=O)[C@H](NC(=O)[C@@H](NC(=O)[C@H](O)[C@H](O)[C@H](CCC(N)=O)NC(=O)[C@H](NC(=O)[C@H](C)[C@H](O)[C@H](C)CC(C)C)[C@H](O)C(=O)O)[C@@H](C)[C@@H](C)C(N)=O)[C@@H]([C@H](C)C(C)C)OC(=O)[C@@H]2CCCCN2C(=O)[C@@H](CC(=O)O)NC1=O` [Pipecolidepsin B] ({Heptanoyl(3R-OH,2R,4R,6-Me3)}-[dAsp(3S-OH)][X1][Gln(3S,4R-Me2)][dNle(3R-OH,4R,5-Me2)][d(aThr)][dK]L[NMeQ][Asn(3S-OEt)][dD][Pip]; ester 4-C) returned a GI50 of 23.3 nM, an LC50 (50% net cell killing) of 209 nM and a TGI of 6.58E−08 Molar. Further, in the series on HT29 (HT29, 72 hours treatment), the concentration for 50% growth inhibition (GI50) came to 14.4 nM, the CC50 was 65.8 nM and the TGI is recorded as 2.69E−08 Molar. Also, in the series with A549, the GI50 was determined as 35.3 nM, the CC50 was found to be 353 nM and the TGI is reported as 1.08E−07 Molar.
Regarding `CCC(C)CC1NC(=O)C(CCCN)NC(=O)C(C(C)O)NC(=O)C(NC(=O)C(NC(=O)C(O)C(O)C(NC(=O)CNC(=O)C(C)C(O)C(C)CC(C)CC(C)C)C(C)O)C(C)C(C)C(N)=O)C(C)OC(=O)C2CCCCN2C(=O)C(CC(N)=O)NC(=O)C(C(OC)C(N)=O)NC(=O)C(CCC(N)=O)N(C)C1=O` (centres unmarked) [Pipecolidepsin C] (X2-G[X3][ξGln(3,4-Me2)]TT[Orn][ξNle(4ξ-Me)][NMeQ][ξAsn(3ξ-OMe)]N[Pip]; ester 4-C; configuration not given here), the 50% growth inhibitory concentration (GI50) in the series with MDA-MB-231 (Homo sapiens) came out at 480 nM; in the series on HT29 (setting [4]), 648 nM; in the series with A549 (Homo sapiens), 428 nM. The LC50 (50% net cell killing) with MDA-MB-231 (Homo sapiens) was found to be 907 nM. Moreover, the TGI in the series on MDA-MB-231 came to 6.48E−07 Molar; in the series with HT29 (HT29, 72 hours treatment), 8.43E−07 Molar; in the series on A549, 5.25E−07 Molar. The CC50 in the series with HT29 (setting [4]) is 1040 nM; in the series with A549 (Homo sapiens) it was 648 nM.
Turning to `CC[C@@H](C)C[C@@H](C)[C@@H](O)[C@@H](C)C(=O)N[C@H](CCCN)C(=O)N[C@@H](CCC(=O)O)[C@@H](O)[C@@H](O)C(=O)N[C@H](C(=O)N[C@H]1C(=O)N[C@H](CO)C(=O)N[C@H](CCCN)C(=O)N[C@@H](CC(C)C)C(=O)N(C)[C@@H](CCC(N)=O)C(=O)N[C@@H]([C@@H](C)OC)C(=O)N[C@H](CC(=O)O)C(=O)N2CCCC[C@H]2C(=O)O[C@@H]1[C@H](C)C(C)C)[C@@H](C)[C@@H](C)C(N)=O` [homophymine A] (X6-[dOrn][X7][Gln(3S,4R-Me2)][dNle(3R-OH,4R,5-Me2)][dS][dOrn]L[NMeQ]T(Me)[dD][Pip]; ester 4-C), the concentration for half-maximal inhibition (IC50) in the series on HIV-1 is 75 nM.
For `CO[C@H](c1ccc(O)cc1)C1NC(=O)[C@H](CCC(N)=O)N(C)C(=O)C(CC(C)C)NC(=O)[C@@H](CCCNC(=N)N)NC(=O)C([C@@H](C)O)NC(=O)C(NC(=O)C(NC(=O)[C@H](O)[C@H](O)[C@H](CCCNC(=N)N)NC(=O)[C@H](CC(N)=O)NC(=O)[C@H](C)[C@H](O)[C@H](C)CC(C)C)[C@@H](C)[C@@H](C)C(N)=O)[C@@H](C)OC(=O)[C@@H]2CCCCN2C(=O)[C@@H](CC(N)=O)CC1=O` (stereo partly drawn) [neamphamide A] ({Heptanoyl(3R-OH,2R,4R,6-Me3)}-N[γ4hArg(2R,3R-(OH)2)][X4][ξThr(3R)(O-yl)][ξThr(3R)][dR][ξL][NMeQ][X5][Pip]; ester 4-C), the EC50 with HIV-1RF [1] is 28 nM.
In the case of papuamide A, in the series with HIV-1RF [2], the “EC50, inhibition of infection of human T-lymphoblastoid cells by HIV-1RF” value was “approximately 4 ng/mL”. Further, the “mean IC50, cytotoxicity” value in series [3] is 0.075 µg/mL.
Take papuamide B: the “EC50, inhibition of infection of human T-lymphoblastoid cells by HIV-1RF” value in the series with HIV-1RF [2] was “approximately 4 ng/mL”.

As usually defined, the GI50 is the concentration at which growth is held to half of that of the control. High values mean lower sensitivity of the cells, low ones greater sensitivity of the cells. For orientation: IC50 means the concentration at which inhibition is half-maximal. In general, EC50 refers to the concentration at which the effect is half-maximal.
